Data: patent publication US7429616B2, “Synthesis and complete stereochemical assignment of psymberin/irciniastatin for use as antitumor compounds” (Board of Regents, University of Texas System, priority 2005, dated 2008)

Tests used:
Type in all cases: cell-based, human
Conditions in all cases: average of three experiments, concentration range 0.2 nM to 20 μM; for GI50 / LC50: Homo sapiens; for GI50: read-out: GI50 (concentration that inhibits 50% growth); for LC50: read-out: LC50 (concentration that kills 50% of the cells)
[1] = system: SK-MEL-5; experiment: Cytotoxicity, CellTiter-Glo Luminescent Cell Viability Assay, SK-MEL-5
Protocol: (§1) The cytotoxicities of compounds 28-a, 28-b, and 29-a were evaluated against the human cancer cell lines HeLa, SK-MEL-5, and SK-MEL-28. The cytotoxicity evaluations were performed, over a concentration range of 0.2 nM to 20 μM, using the CellTiter-Glo™ Luminescent Cell Viability Assay, a product of Promega Corporation (Madison, Wis. USA), according to the protocol detailed in Promega's Technical Bulletin No. 288. Each value is the average value obtained from three experiments. GI50 is the concentration that inhibits 50% growth; TGI is the concentration that inhibits 100% growth; and LC50 is the concentration that kills 50% of the cells.

[2] = system: HeLa; experiment: Cytotoxicity, CellTiter-Glo Luminescent Cell Viability Assay, HeLa
Protocol: as §1

[3] = system: SK-MEL-28; experiment: Cytotoxicity, CellTiter-Glo Luminescent Cell Viability Assay, SK-MEL-28
Protocol: as §1

Structure (SMILES) | GI50 [1] [nM] | LC50 [1] [nM] | TGI (concentration that inhibits 100% growth) [1] [nM] | GI50 [2] [nM] | LC50 [2] [nM] | TGI (concentration that inhibits 100% growth) [2] [nM] | GI50 [3] [nM] | LC50 [3] [nM] | TGI (concentration that inhibits 100% growth) [3] [nM]
C=C(C)CC(OC)[C@H](O)C(=O)N[C@@H](OC)[C@@H]1C[C@@H](O)C(C)(C)[C@@H](C[C@H](O)C(C)C2Cc3c(C)c(O)cc(O)c3C(=O)O2)O1 (stereo partly drawn) [Compound 28-a, psymberin] | 0.3 | 1.3 | 0.7 | 0.23 | 1.6 | 0.90 | 0.23 | 1.2 | 0.7
C=C(C)C[C@H](OC)[C@H](O)C(=O)N[C@H](OC)[C@@H]1C[C@@H](O)C(C)(C)C(CC(O)[C@@H](C)C2Cc3c(C)c(O)cc(O)c3C(=O)O2)O1 (stereo partly drawn) [Compound 28-b] | 300 | 1100 | 700 | 80 | 900 | 200 | 110 | 900 | 400
C=C(C)C[C@@H](OC)[C@H](O)C(=O)N[C@@H](OC)[C@@H]1C[C@@H](O)C(C)(C)C(CC(O)[C@@H](C)C2Cc3c(C)c(O)cc(O)c3C(=O)O2)O1 (stereo partly drawn) [Compound 29-a] | 300 | 1700 | 800 | 60 | 900 | 200 | 200 | 1100 | 550
